From patent US20230108906A1, “SUBSTITUTED BICYCLIC AND TRICYCLIC UREAS AND AMIDES, ANALOGUES THEREOF, AND METHODS USING SAME” (Arbutus Biopharma Corporation, priority 2019, published 2023)

The molecules below were run on HBV rcDNA in HepDE19 cells (assay: HepDE19 assay with bDNA quantitation of HBV rcDNA). Conditions: Hepatitis B virus, HepDE19, 168 h, inhibition of rcDNA formation in HepDE19 cells (HepG2 derived), Tet-free medium, 7 day incubation, Quantigene 2.0 bDNA readout, top concentration 25 μM; read-out: DE-19bDNA EC50.
Assay type: cell-based, hepatitis B virus (HBV)
Procedure: HepDE19 Assay with bDNA Quantitation of HBV rcDNA:
HepDE19 cell culture system is a HepG2 (human hepatocarcinoma) derived cell line that supports HBV DNA replication and cccDNA formation in a tetracycline (Tet)-regulated manner and produces HBV rcDNA and a detectable reporter molecule dependent on the production and maintenance of cccDNA (Guo, et al., 2007, J. Virol. 81:12472-12484).
HepDE19 (50,000 cells/well) were plated in 96-well collagen-coated tissue-culture treated microtiter plates in DMEM/F12 medium supplemented with 10% fetal bovine serum, 1% penicillin-streptomycin and 1 μg/mL tetracycline and incubated in a humidified incubator at 37° C. and 5% CO2 overnight. Next day, the cells were switched to fresh medium without tetracycline and incubated for 4 hours at 37° C. and 5% CO2. The cells were treated with fresh Tet-free medium with compounds at concentrations starting at 25 μM and a serial, […], 8-point, titration series in duplicate. The final DMSO concentration in the assay was 0.5%. The plates were incubated for 7 days in a humidified incubator at 37° C. and 5% CO2. Following a 7 day-incubation, the level of rcDNA present in the inhibitor-treated wells was measured using a Quantigene 2.0 bDNA assay kit (Affymetrix, Santa Clara, Calif.) with HBV specific custom probe set and manufacturers instructions. Concurrently, the effect of compounds on cell viability was assessed using replicate plates, plated at a density of 5,000 cells/well and incubated for 4 days, to determine the ATP content as a measure of cell viability using the cell-titer glo reagent (CTG; Promega Corporation, Madison, Wis.) as per manufacturer's instructions. The plates were read using a Victor luminescence plate reader (PerkinElmer Model 1420 Multilabel counter) and the relative luminescence units (RLU) data generated from each well was calculated as % inhibition of the untreated control wells and analyzed using XL-Fit module in Microsoft Excel to determine EC50 and EC90 (bDNA) and CC50 (CTG) values using a 4-parameter curve fitting algorithm.
Representative compounds of the disclosure were tested for their abilities to inhibit formation of relaxed circular DNA (rcDNA) in a HepDE19 assay, as described elsewhere herein.
CN(C(=O)Nc1ccc(F)c(Cl)c1)C1CCCc2[nH]c(=O)c3cc(F)c(F)cc3c21 (racemic) [Compound 15, 3-(3-Chloro-4-fluorophenyl)-1-(8,9-difluoro-6-oxo-1,2,3,4,5,6-hexahydrophenanthridin-1-yl)-1-methylurea] was tested, and the EC50 was 0.02 µM.
With CN(C(=O)Nc1ccc(F)c(Cl)c1)C1COCc2[nH]c(=O)c3c(F)c(F)ccc3c21 (stereo not shown) [Compound 35, 3-(3-Chloro-4-fluorophenyl)-1-(7,8-difluoro-6-oxo-1,4,5,6-tetrahydro-2H-pyrano[3,4-c]isoquinolin-1-yl)-1-methylurea] the EC50 was 0.19 µM.
CN(C(=O)Nc1ccc(F)c(Cl)c1)[C@@H]1COCc2c1c1cc(F)c(F)cc1c(=O)n2CCN [Compound 257, (S)-1-(5-(2-Aminoethyl)-8,9-difluoro-6-oxo-1,4,5,6-tetrahydro-2H-pyrano[3,4-c]isoquinolin-1-yl)-3-(3-chloro-4-fluorophenyl)-1-methylurea] was tested, and the EC50 was 3.1 µM.
CN(C(=O)Nc1ccc(F)c(C(F)F)c1)C1COCc2[nH]c(=O)c3cc(F)ccc3c21 (stereo not shown) [Compound 124, 3-(3-(Difluoromethyl)-4-fluorophenyl)-1-(8-fluoro-6-oxo-1,4,5,6-tetrahydro-2H-pyrano[3,4-c]isoquinolin-1-yl)-1-methylurea] showed an EC50 of 0.01 µM.
CN(C(=O)Nc1ccc(F)c(Cl)c1)[C@H]1COCc2[nH]c(=O)c3cc(F)c(F)cc3c21 (single isomer, unassigned) [Compound 71] was tested, and the EC50 was 0.21 µM.
Molecule CN(C(=O)Nc1ccc(F)c(Cl)c1)C1COC(O)c2[nH]c(=O)c3cc(F)c(F)cc3c21 (stereo not shown) [Compound 151, 3-(3-Chloro-4-fluorophenyl)-1-(8,9-difluoro-4-hydroxy-6-oxo-1,4,5,6-tetrahydro-2H1-pyrano[3,4-c]isoquinolin-1-yl)-1-methylurea] has an EC50 of 0.02 µM.
Work on CN(C(=O)Nc1ccc(F)cc1)C1CCCc2[nH]c(=O)c3cc(F)c(F)cc3c21 (stereo not shown) [Compound 19, 1-(8,9-Difluoro-6-oxo-1,2,3,4,5,6-hexahydrophenanthridin-1-yl)-3-(4-fluorophenyl)-1-methylurea] yielded an EC50 of 0.16 µM.

Same assay, conditions: Hepatitis B virus, HepDE19, 168 h, read-out: DE-19bDNA EC50 (uM), inhibition of rcDNA formation in HepDE19 cells (HepG2 derived), Tet-free medium, 7 day incubation, Quantigene 2.0 bDNA readout, top concentration 25 μM
In the case of COc1ccc(NC(=O)N(C)[C@@H]2COCc3[nH]c(=O)c4cc(F)c(F)cc4c32)cc1Cl [Compound 147, (S)-3-(3-Chloro-4-methoxyphenyl)-1-(8,9-difluoro-6-oxo-1,4,5,6-tetrahydro-2H-pyrano[3,4-c]isoquinolin-1-yl)-1-methylurea], the EC50 is reported as 0.14 µM.

Same assay, conditions: inhibition of rcDNA formation in HepDE19 cells (HepG2 derived), Tet-free medium, 7 day incubation, Quantigene 2.0 bDNA readout, top concentration 25 μM; read-out: DE-19bDNA EC50
Molecule CN(C(=O)Nc1ccc(F)c(C#N)c1)C1CSCc2[nH]c(=O)c3cc(F)c(F)cc3c21 (single isomer, unassigned) [Compound 189, 3-(3-Cyano-4-fluorophenyl)-1-(8,9-difluoro-6-oxo-1,4,5,6-tetrahydro-2H-thiopyrano[3,4-c]isoquinolin-1-yl)-1-methylurea] has an EC50 of 0.88 µM.
CN(C(=O)Nc1ccc(F)c(Cl)c1)C1CCCc2[nH]c(=O)c3cc(F)c(F)cc3c21 (stereo not shown) [Compound 38, 3-(3-Chloro-4-fluorophenyl)-1-(8,9-difluoro-6-oxo-1,2,3,4,5,6-hexahydrophenanthridin-1-yl)-1-methylurea] gave an EC50 of 1 µM.
For CN(C(=O)Nc1ccc(F)c(C#N)c1)C1C[S+]([O-])Cc2[nH]c(=O)c3cc(F)ccc3c21 (single isomer, unassigned) [Compound 200, 3-(3-Cyano-4-fluorophenyl)-1-(8-fluoro-3-oxido-6-oxo-1,4,5,6-tetrahydro-2H-thiopyrano[3,4-c]isoquinolin-1-yl)-1-methylurea], the EC50 was ≥ 25 µM.
For CN(C(=O)Nc1ccc(F)c(C#N)c1)C1C[S+]([O-])Cc2[nH]c(=O)c3cc(F)c(F)cc3c21 (single isomer, unassigned) [Compound 213, 3-(3-Cyano-4-fluorophenyl)-1-(8,9-difluoro-3-oxido-6-oxo-1,4,5,6-tetrahydro-2H-thiopyrano[3,4-c]isoquinolin-1-yl)-1-methylurea], the EC50 was 1 µM.
With CN(C(=O)Nc1ccc(F)c(Cl)c1)C1COCc2nc(NCCN)c3cc(F)c(F)cc3c21 (single isomer, unassigned) [Compound 249] the EC50 was 8.3 µM.
With CN(C(=O)Nc1ccc(F)c(C#N)c1)C1CN(CCO)Cc2[nH]c(=O)c3cc(F)c(F)cc3c21 (single isomer, unassigned) [Compound 182, 3-(3-Cyano-4-fluorophenyl)-1-(8,9-difluoro-3-(2-hydroxyethyl)-6-oxo-1,2,3,4,5,6-hexahydrobenzo[c][1,7]naphthyridin-1-yl)-1-methylurea] the EC50 was 4.9 µM.
With CN(C(=O)Nc1ccc(F)c(F)c1)C1CCCc2[nH]c(=O)c3c(c21)CCCC3 (single isomer, unassigned) [Compound 49, 3-(3,4-Difluorophenyl)-1-methyl-1-(6-oxo-1,2,3,4,5,6,7,8,9,10-decahydrophenanthridin-1-yl)urea] the EC50 was 0.16 µM.
For CS(=O)(=O)CCN(C(=O)Nc1ccc(F)c(Cl)c1)C1COCc2[nH]c(=O)c3cc(F)c(F)cc3c21 (single isomer, unassigned) [Compound 139, 3-(3-Chloro-4-fluorophenyl)-1-(8,9-difluoro-6-oxo-1,4,5,6-tetrahydro-2H-pyrano[3,4-c]isoquinolin-1-yl)-1-(2-(methylsulfonyl)ethyl)urea], the EC50 was 0.6 µM.
With CN(C(=O)Nc1cc(F)c(F)c(F)c1)C1COCc2[nH]c(=O)c3cc(F)c(F)cc3c21 (single isomer, unassigned) [Compound 134, 1-(8,9-Difluoro-6-oxo-1,4,5,6-tetrahydro-2H-pyrano[3,4-c]isoquinolin-1-yl)-1-methyl-3-(3,4,5-trifluorophenyl)urea] the EC50 was 0.99 µM.
With CN(C(=O)Nc1ccc(F)c(F)c1)C1COCc2[nH]c(=O)c3c(c21)CCOC3 (single isomer, unassigned) [Compound 93, 3-(3,4-Difluorophenyl)-1-methyl-1-(6-oxo-1,2,4,5,6,7,9,10-octahydrodipyrano[3,4-b:4′,3′-d]pyridin-1-yl)urea] the EC50 was ≥ 25 µM.
CC(C)CN(C(=O)Nc1ccc(F)c(F)c1)C1COCc2[nH]c(=O)c3cc(F)ccc3c21 (single isomer, unassigned) [Compound 100, 3-(3,4-Difluorophenyl)-1-(8-fluoro-6-oxo-2,4,5,6-tetrahydro-1H-pyrano[3,4-c]isoquinolin-1-yl)-1-isobutylurea] gave an EC50 of 0.43 µM.
With CN(C(=O)Nc1ccc(F)c(F)c1)C1CNCc2[nH]c(=O)c3cc(F)c(F)cc3c21 (single isomer, unassigned) [Compound 191, 1-(8,9-Difluoro-6-oxo-1,2,3,4,5,6-hexahydrobenzo[c][1,7]naphthyridin-1-yl)-3-(3,4-difluorophenyl)-1-methylurea] the EC50 was 3 µM.
With CN(C(=O)Nc1ccc(F)c(C(F)F)c1)C1COCc2nc(NCCO)c3cc(F)c(F)cc3c21 (single isomer, unassigned) [Compound 237, 1-(8,9-Difluoro-6-((2-hydroxyethyl)amino)-1,4-dihydro-2H-pyrano[3,4-c]isoquinolin-1-yl)-3-(3-(difluoromethyl)-4-fluorophenyl)-1-methylurea] the EC50 was 2.62 µM.
For CN(C(=O)Nc1ccc(F)c(C#N)c1)C1CN(CCO)Cc2[nH]c(=O)c3cc(F)ccc3c21 (single isomer, unassigned) [Compound 171, 3-(3-Cyano-4-fluorophenyl)-1-(8-fluoro-3-(2-hydroxyethyl)-6-oxo-1,2,3,4,5,6-hexahydrobenzo[c][1,7]naphthyridin-1-yl)-1-methylurea], the EC50 was 23 µM.
Molecule CN(C(=O)Nc1ccc(F)c(Cl)c1)C1CNCc2[nH]c(=O)c3cc(F)ccc3c21 (single isomer, unassigned) [Compound 153, 3-(3-Chloro-4-fluorophenyl)-1-(8-fluoro-6-oxo-1,2,3,4,5,6-hexahydrobenzo[c][1,7]naphthyridin-1-yl)-1-methylurea] has an EC50 of 0.73 µM.
CN(C(=O)Nc1ccc(F)c(F)c1)C1COCc2[nH]c(=O)c3c(c21)COCC3 (single isomer, unassigned) [Compound 85, 3-(3,4-Difluorophenyl)-1-methyl-1-(5-oxo-1,3,4,5,6,7,9,10-octahydrodipyrano[3,4-b:3′,4′-d]pyridin-10-yl)urea] showed an EC50 of 4.5 µM.
With CCN(C(=O)Nc1ccc(F)c(Cl)c1)C1CCCc2[nH]c(=O)c3c(c21)CCCC3 (single isomer, unassigned) [Compound 54, 3-(3-Chloro-4-fluorophenyl)-1-ethyl-1-(6-oxo-1,2,3,4,5,6,7,8,9,10-decahydrophenanthridin-1-yl)urea] the EC50 was 0.03 µM.
